Blank lines part the entries; values can stand above or below the compound they belong to.
Assays:
Grass Weeds = experiment: Post-emergent application in combination with other herbicides, percent control of grass weeds; format: in vivo
Protocol: All test compounds were dissolved in acetone and applied to the test units in a volume of 187 l/ha. Test materials were applied at rates ranging from 125 g ai/ha to 1000 g ai/ha using a track sprayer equipped with a TJ8001E even flow flat fan spray nozzle. Plants were arranged on a shelf so that the top of the canopy (post-emerge) or top of the soil surface (pre-emerge) was 40-45 cm below the nozzle. Pressurized air was used to force the test solution through the nozzle as it was mechanically advanced (via electrically driven chain drive) over the top of all test plants/pots. This application simulates a typical commercial field herbicide application. In the post-emerge test, a commercial non-ionic surfactant was also included (0.25% v/v) to enhance wetting of the leaf surfaces Qf target plants at rates ranging from 63 g ai/ha to 1000 g ai/ha. For post-emerge tests, seeds were planted 8-21 days prior to the test to allow emergence and good foliage development prior to application of the test substances. At the time of the post-emerge application, plants of all species were usually at the 2-3 leaf stage of development. Post-emerge test units were always bottom-watered. At 14 days after application of the test materials, phytotoxicity ratings were recorded. A rating scale of 0-100 was used as previously described in Research Methods in Weed Science, 2nd edition, B. Truelove, Ed., Southern Weed Science Society, Auburn University, Auburn, Ala., 1977. Briefly, “0” corresponds to no damage and “100” corresponds to complete death of all plants in the test unit. This scale was used both to determine efficacy against weed species and damage to crop species. Herbicide activity data for various compounds of this invention, which are shown by compound number in Tables 1-9, are shown in Tables 13 and 14. […] (Note: Weed species abbreviations are from the Composite List of Weeds published by the Weed Science Society of America, 1989.) The following examples illustrate the utility of combinations of compounds of this invention and existing herbicides. The methods used are identical to those for the application of single compounds except the commercial formulations of existing herbicides were added to the spray mixture in the appropriate amounts before spraying. Combination Example 3. Post-emergent Application of Compound 9-1 with Nicosulfuron Combination Example 4. Postemergent Application of Compound 9-1 with Pyridate

Broadleaf Weeds = experiment: Post-emergent application in combination with other herbicides, percent control of broadleaf weeds; format: in vivo
Protocol: All test compounds were dissolved in acetone and applied to the test units in a volume of 187 l/ha. Test materials were applied at rates ranging from 125 g ai/ha to 1000 g ai/ha using a track sprayer equipped with a TJ8001E even flow flat fan spray nozzle. Plants were arranged on a shelf so that the top of the canopy (post-emerge) or top of the soil surface (pre-emerge) was 40-45 cm below the nozzle. Pressurized air was used to force the test solution through the nozzle as it was mechanically advanced (via electrically driven chain drive) over the top of all test plants/pots. This application simulates a typical commercial field herbicide application. […] For post-emerge tests, seeds were planted 8-21 days prior to the test to allow emergence and good foliage development prior to application of the test substances. At the time of the post-emerge application, plants of all species were usually at the 2-3 leaf stage of development. Post-emerge test units were always bottom-watered. At 14 days after application of the test materials, phytotoxicity ratings were recorded. A rating scale of 0-100 was used as previously described in Research Methods in Weed Science, 2nd edition, B. Truelove, Ed., Southern Weed Science Society, Auburn University, Auburn, Ala., 1977. Briefly, “0” corresponds to no damage and “100” corresponds to complete death of all plants in the test unit. This scale was used both to determine efficacy against weed species and damage to crop species. Herbicide activity data for various compounds of this invention, which are shown by compound number in Tables 1-9, are shown in Tables 13 and 14. […] (Note: Weed species abbreviations are from the Composite List of Weeds published by the Weed Science Society of America, 1989.) The following examples illustrate the utility of combinations of compounds of this invention and existing herbicides. The methods used are identical to those for the application of single compounds except the commercial formulations of existing herbicides were added to the spray mixture in the appropriate amounts before spraying. Combination Example 3. Post-emergent Application of Compound 9-1 with Nicosulfuron Combination Example 4. Postemergent Application of Compound 9-1 with Pyridate

Compound: CCCCCCCCSC(=O)Oc1cc(Cl)nnc1-c1ccccc1 [Pyridate, reference compound]
Percent Control of Grass Weeds DIGSA (Grass Weeds; 527 g ai/ha): 10% | Percent Control of Grass Weeds ECHCG (Grass Weeds; 527 g ai/ha): 50% | Percent Control of Grass Weeds SETVI (Grass Weeds; 527 g ai/ha): 95% | Percent Control of Grass Weeds SORHA (Grass Weeds; 527 g ai/ha): 10% | Percent Control of Broadleaf Weeds ABUTH (Broadleaf Weeds; 527 g ai/ha): 60% | Percent Control of Broadleaf Weeds AMARE (Broadleaf Weeds; 527 g ai/ha): 90% | Percent Control of Broadleaf Weeds AMBEL (Broadleaf Weeds; 527 g ai/ha): 40% | Percent Control of Broadleaf Weeds CASOB (Broadleaf Weeds; 527 g ai/ha): 10% | Percent Control of Broadleaf Weeds CHEAL (Broadleaf Weeds; 527 g ai/ha): 85% | Percent Control of Broadleaf Weeds IPOHE (Broadleaf Weeds; 527 g ai/ha): 80%

Compound: COc1cc(OC)nc(NC(=O)NS(=O)(=O)c2ncccc2C(=O)N(C)C)n1 [Nicosulfuron, reference compound]
Percent Control of Grass Weeds DIGSA (Grass Weeds; 23 g ai/ha): 80% | Percent Control of Grass Weeds ECHCG (Grass Weeds; 23 g ai/ha): 95% | Percent Control of Grass Weeds SETVI (Grass Weeds; 23 g ai/ha): 85% | Percent Control of Grass Weeds SORHA (Grass Weeds; 23 g ai/ha): 85% | Percent Control of Broadleaf Weeds ABUTH (Broadleaf Weeds; 23 g ai/ha): 55% | Percent Control of Broadleaf Weeds AMARE (Broadleaf Weeds; 23 g ai/ha): 70% | Percent Control of Broadleaf Weeds AMBEL (Broadleaf Weeds; 23 g ai/ha): 0% | Percent Control of Broadleaf Weeds CASOB (Broadleaf Weeds; 23 g ai/ha): 30% | Percent Control of Broadleaf Weeds CHEAL (Broadleaf Weeds; 23 g ai/ha): 70% | Percent Control of Broadleaf Weeds IPOHE (Broadleaf Weeds; 23 g ai/ha): 70%

Other lines, results leading:

melting point: 276 to 278 °C
Compound: CS(=O)(=O)c1cccnc1Oc1cc(-n2c(=O)cc(C(F)(F)F)n(N)c2=O)c(F)cc1Cl [Compound 9-19, 1-Amino-3-[4-chloro-2-fluoro-5-(3-methylsulfonyl-2-pyridyloxy)phenyl]-6-trifluoromethyl-1,2,3,4-tetrahydropyrimidine-2,4-dione]

melting point: 277 to 279 °C
Compound: CCS(=O)(=O)c1cccnc1Oc1cc(-n2c(=O)cc(C(F)(F)F)n(N)c2=O)c(F)cc1Cl [Compound 9-13, 1-Amino-3-[4-Chloro-2-fluoro-5-(3-ethylsulfonyl-2-pyridyloxy)phenyl]-6-trifluoromethyl-1,2,3,4-tetrahydropyrimidine-2,4-dione]

melting point: 220 to 222 °C
Compound: N#Cc1ccccc1Oc1cc(-n2c(=O)cc(C(F)(F)F)n(N)c2=O)c(F)cc1Cl [Compound 9-30, 1-Amino-3-[4-chloro2-fluoro-5-(2-cyanophenoxy)phenyl]-6-trifluoromethyl-1,2,3,4-tetrahydropyrimidine-2,4-dione]

melting point: 230 to 233 °C
Compound: N#Cc1c(F)cccc1Oc1cc(-n2c(=O)cc(C(F)(F)F)n(N)c2=O)c(F)cc1Cl [Compound 9-31, 1-Amino-3-[4-chloro-2-fluoro-5-(2-cyano-3-fluorophenoxy)phenyl]-6-trifluoromethyl-1,2,3,4-tetrahydropyrimidine-2,4-dione]

— US6479435B1, “Diaryl ethers and processes for their preparation and herbicidal and desiccant compositions containing them” (ISK Americas Incorporated, priority 1997, dated 2002)
